In the supplement of paper PMC11061612:

Tests used:
[1] = test system: BT-549 (Breast Carcinoma); assay: Bliss excess, mean over the matrix (fraction); higher = more synergy
Procedure, shortened: (§1)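 Bliss excess equals the observed combination effect minus the expected value EA + EB − EA·EB, where EA and EB are the effects of each agent alone. Combination Emax is the second-highest inhibition within the matrix. Inhibition was scaled from CellTiter-Glo 2.0 luminescence, with 0 set by vehicle wells and 1 by blank wells, after 72 hours of two-drug dosing of cells plated in 1536-well plates.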

EW-24 (Ewing's Sarcoma) = assay: as above
Procedure, shortened: as §1

[2] = test system: LU-65 (Non-Small Cell Lung Carcinoma); assay: as above
Procedure, shortened: as §1

[3] = test system: KYSE-450 (Esophageal Squamous Cell Carcinoma); assay: as above
Procedure, shortened: as §1

[4] = test system: AMO-1 (Plasma Cell Myeloma); assay: as above
Procedure, shortened: as §1

YH-13 (Glioblastoma) = assay: as above
Procedure, shortened: as §1

[5] = test system: RF-48 (B-Cell Non-Hodgkin's Lymphoma); assay: as above
Procedure, shortened: as §1

[6] = test system: NCI-H727 (Other Solid Carcinomas); assay: as above
Procedure, shortened: as §1

UACC-62 (Melanoma) = assay: as above
Procedure, shortened: as §1

[7] = test system: SW13 (Other Solid Carcinomas); assay: as above
Procedure, shortened: as §1

[8] = test system: KMOE-2 (Acute Myeloid Leukemia); assay: combination Emax (second highest fraction inhibited in the dose matrix, 72 h); higher = more inhibition; extreme values may be limits of the assay
Procedure, shortened: as §1

[9] = test system: OSC-20 (Oral Cavity Carcinoma); assay: as above
Procedure, shortened: as §1

[10] = test system: VA-ES-BJ (Other Solid Carcinomas); assay: as above
Procedure, shortened: as §1

[11] = test system: SCC-15 (Oral Cavity Carcinoma); assay: as above
Procedure, shortened: as §1

PWR-1E (Non-Cancerous) = assay: as above
Procedure, shortened: as §1

[12] = test system: NCI-H1915 (Non-Small Cell Lung Carcinoma); assay: as above
Procedure, shortened: as §1

[13] = test system: C-4-I (Cervical Carcinoma); assay: as above
Procedure, shortened: as §1

[14] = test system: OVCAR-4 (Ovarian Carcinoma); assay: as above
Procedure, shortened: as §1

[15] = test system: NUGC-3 (Gastric Carcinoma); assay: as above
Procedure, shortened: as §1

[16] = test system: SU8686 (Pancreatic Carcinoma); assay: as above
Procedure, shortened: as §1

Row | Compound | Bliss excess [1] | Bliss excess (EW-24 (Ewing's Sarcoma)) | Bliss excess [2] | Bliss excess [3] | Bliss excess [4] | Bliss excess (YH-13 (Glioblastoma)) | Bliss excess [5] | Bliss excess [6] | Bliss excess (UACC-62 (Melanoma)) | Bliss excess [7] | combination Emax [8] | combination Emax [9] | combination Emax [10] | combination Emax [11] | combination Emax (PWR-1E (Non-Cancerous)) | combination Emax [12] | combination Emax [13] | combination Emax [14] | combination Emax [15] | combination Emax [16]
1 | N#Cc1cnc(Nc2cc(NC[C@H]3CNCCO3)c(C(F)(F)F)cn2)cn1 [SRA737] + O=c1[nH]cc(F)c(=O)[nH]1 [5-Fluorouracil] (first compound max 10 µM, 7x7, partner max 20 µM) | 0.0358 | 0.0101 | 0.0104 | -0.0348 | -0.0004 | 0.0119 | -0.0095 | 0.001 | -0.0561 | -0.026 |  |  |  |  |  |  |  |  |  | 
2 | N#Cc1cnc(Nc2cc(NC[C@H]3CNCCO3)c(C(F)(F)F)cn2)cn1 [SRA737] + CCc1c2c(nc3ccc(O)cc13)-c1cc3c(c(=O)n1C2)COC(=O)[C@]3(O)CC [SN-38] (first compound max 10 µM, 7x7, partner max 0.3 µM) | -0.0463 | -0.0859 | -0.0191 | 0.157 | -0.0225 | 0.0231 | -0.0047 | 0.0316 | 0.0364 | -0.0192 |  |  |  |  |  |  |  |  |  | 
3 | CN(CCO)CC[C@H](CSc1ccccc1)Nc1ccc(S(=O)(=O)NC(=O)c2ccc(N3CCC([C@@H](O)c4ccccc4-c4ccc(Cl)cc4)CC3)cc2)cc1S(=O)(=O)C(F)(F)F [AZD4320] + CCN(CCO)CCCOc1ccc2c(Nc3cc(CC(=O)Nc4cccc(F)c4)[nH]n3)ncnc2c1 [AZD2811] (first compound max 1 µM, 7x7, partner max 1 µM) | 0.0218 | 0.0538 | -0.0437 | -0.0273 | -0.0102 | 0.0819 | 0.0643 | -0.0221 | 0.0105 | -0.0152 | 0.934 | 0.291 | 0.291 | 0.346 | 0.843 | 0.31 | 0.657 | 0.389 | 0.498 | 0.155
4 | CN(CCO)CC[C@H](CSc1ccccc1)Nc1ccc(S(=O)(=O)NC(=O)c2ccc(N3CCC([C@@H](O)c4ccccc4-c4ccc(Cl)cc4)CC3)cc2)cc1S(=O)(=O)C(F)(F)F [AZD4320] + Nc1ccn([C@@H]2O[C@H](CO)[C@@H](O)C2(F)F)c(=O)n1 [Gemcitabine] (first compound max 1 µM, 7x7, partner max 0.3 µM) | -0.0365 | 0.118 | -0.0667 | -0.0497 | -0.036 | 0.0368 | -0.0365 | 0.0335 | -0.006 | -0.017 |  |  |  |  |  |  |  |  |  | 
5 | COc1cc2ncnc(Nc3ccc(F)c(Cl)c3)c2cc1OCCCN1CCOCC1 [Gefitinib] + CC(C)n1c(=O)n(C)c2cnc3cc(F)c(-c4ccc(OCCCN5CCCCC5)nc4)cc3c21 [AZD1390] (first compound max 10 µM, 7x7, partner max 0.3 µM) | -0.0549 | -0.0759 | -0.0614 | -0.0177 | -0.0485 | -0.0848 | -0.0283 | -0.108 | -0.0358 | -0.0233 | 0.0507 | 0.064 | 0.0868 | 0.39 | 0.205 | 0.213 | 0.387 | 0.0866 | 0.486 | 0.082
6 | COc1cc2c(cc1OCCCCCOc1cc3c(cc1OC)C(=O)N1C=C(C)C[C@H]1C=N3)N=C[C@@H]1CC(C)=CN1C2=O [SG3199] + O=C(c1cc(Cc2n[nH]c(=O)c3ccccc23)ccc1F)N1CCN(C(=O)C2CC2)CC1 [Olaparib] (first compound max 0.001 µM, 7x7, partner max 10 µM) | -0.041 | -0.0272 | 0.0047 | -0.041 | -0.0342 | -0.0282 | 0.0133 | -0.0726 | -0.0663 | -0.0184 | 0.0783 | 0.145 | 0.151 | 0.0778 | 0.0981 | 0.353 | 0.184 | 0.126 | 0.124 | 0.0347
7 | Cc1cc2ncnn2cc1Nc1ncc2c(n1)n(C1CCOCC1)c(=O)n2C [AZD7648] + C[C@@H]1COCCN1C2=NC(=NC(=C2)C3(CC3)[S@](=N)(=O)C)C4=C5C=CNC5=NC=C4 [AZD6738] (first compound max 10 µM, 7x7, partner max 10 µM) | 0.0207 | -0.0023 | -0.0392 | 0.0281 | -0.0184 | 0.0821 | 0.0071 | 0.0381 | 0.0529 | 0.0707 | 0.586 | 0.41 | 0.73 | 0.565 | 0.769 | 0.364 | 0.929 | 0.737 | 0.665 | 0.232
8 | CN(CCO)CC[C@H](CSc1ccccc1)Nc1ccc(S(=O)(=O)NC(=O)c2ccc(N3CCC([C@@H](O)c4ccccc4-c4ccc(Cl)cc4)CC3)cc2)cc1S(=O)(=O)C(F)(F)F [AZD4320] + C=CCn1c(=O)c2cnc(Nc3ccc(N4CCN(C)CC4)cc3)nc2n1-c1cccc(C(C)(C)O)n1 [AZD1775] (first compound max 1 µM, partner max 1 µM) | 0.0109 | 0.119 | -0.0162 | -0.0535 | 0.0119 | -0.0163 | 0.0896 | -0.0587 | 0.025 | -0.02 | 1 | 0.119 | 0.458 | 0.551 | 0.338 | 0.853 | 0.946 | 0.662 | 0.764 | 0.238
9 | CN(CCO)CC[C@H](CSc1ccccc1)Nc1ccc(S(=O)(=O)NC(=O)c2ccc(N3CCC([C@@H](O)c4ccccc4-c4ccc(Cl)cc4)CC3)cc2)cc1S(=O)(=O)C(F)(F)F [AZD4320] + Cn1cnc2c(F)c(Nc3ccc(Br)cc3Cl)c(C(=O)NOCCO)cc21 [Selumetinib] (first compound max 1 µM, 7x7, partner max 3 µM) | -0.0231 | -0.0352 | 0.0176 | 0.0177 | 0.0579 | -0.0219 | -0.0317 | 0.0963 | -0.0035 | 0.0166 | 1 | 0.321 | 0.203 | 0.548 | 0.601 | 0.583 | 0.52 | 0.381 | 0.762 | 0.228
10 | CN(CCO)CC[C@H](CSc1ccccc1)Nc1ccc(S(=O)(=O)NC(=O)c2ccc(N3CCC([C@@H](O)c4ccccc4-c4ccc(Cl)cc4)CC3)cc2)cc1S(=O)(=O)C(F)(F)F [AZD4320] + C[C@@H]1COCCN1C2=NC(=NC(=C2)C3(CC3)[S@](=N)(=O)C)C4=C5C=CNC5=NC=C4 [AZD6738] (first compound max 1 µM, 7x7, partner max 10 µM) | -0.0239 | 0.0267 | -0.0092 | -0.0496 |  | -0.0035 | 0.0017 | -0.0735 | -0.0317 | -0.0208 | 0.938 | 0.358 | 0.863 | 0.709 | 0.971 | 0.529 | 0.952 | 0.794 | 0.756 | 0.205
11 | N#Cc1cnc(Nc2cc(NC[C@H]3CNCCO3)c(C(F)(F)F)cn2)cn1 [SRA737] + Nc1ccn([C@@H]2O[C@H](CO)[C@@H](O)C2(F)F)c(=O)n1 [Gemcitabine] (first compound max 10 µM, 7x7, partner max 0.3 µM) | -0.0532 | -0.0984 | 0.0224 | 0.114 | 0.0377 | 0.0032 | 0.0451 | -0.0046 | 0.019 | 0.0367 |  |  |  |  |  |  |  |  |  | 
12 | CN(CCO)CC[C@H](CSc1ccccc1)Nc1ccc(S(=O)(=O)NC(=O)c2ccc(N3CCC([C@@H](O)c4ccccc4-c4ccc(Cl)cc4)CC3)cc2)cc1S(=O)(=O)C(F)(F)F [AZD4320] + CC(=O)O[C@H]1C(=O)[C@@]2(C)[C@H]([C@H](OC(=O)c3ccccc3)[C@]3(O)C[C@H](OC(=O)[C@H](O)[C@@H](NC(=O)c4ccccc4)c4ccccc4)C(C)=C1C3(C)C)[C@]1(OC(C)=O)CO[C@@H]1C[C@@H]2O [Paclitaxel] (first compound max 1 µM, 7x7, partner max 3 µM) | 0.0578 | 0.17 | 0.0224 | 0.0129 | 0.0173 | 0.0619 | -0.0029 | 0.101 | 0.0953 |  |  |  |  |  |  |  |  |  |  | 
13 | Cc1cc2ncnn2cc1Nc1ncc2c(n1)n(C1CCOCC1)c(=O)n2C [AZD7648] + COc1cc([C@@H]2c3cc4c(cc3[C@@H](O[C@@H]3O[C@@H]5CO[C@@H](C)O[C@H]5[C@H](O)[C@H]3O)[C@H]3COC(=O)[C@H]23)OCO4)cc(OC)c1O [Etoposide] (first compound max 10 µM, 7x7, partner max 10 µM) | 0.0306 | 0.0463 | 0.0212 | 0.0385 | 0.138 | 0.0877 | 0.0671 | -0.0041 | 0.045 | 0.0808 |  |  |  |  |  |  |  |  |  | 
14 | N#Cc1cnc(Nc2cc(NC[C@H]3CNCCO3)c(C(F)(F)F)cn2)cn1 [SRA737] + C=CCn1c(=O)c2cnc(Nc3ccc(N4CCN(C)CC4)cc3)nc2n1-c1cccc(C(C)(C)O)n1 [AZD1775] (first compound max 10 µM, partner max 1 µM) | 0.0819 | 0.0488 | 0.0233 | 0.119 | 0.0986 | 0.0804 | -0.0171 | 0.0694 | 0.0048 | 0.0091 |  |  |  |  |  |  |  |  |  | 
